Measurements published in ChEMBL document CHEMBL1201862, “PubChem BioAssay data set” (2004).
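Cells were grown in 96-well plates and exposed to each compound for 48 hours at five concentrations; endpoints were interpolated linearly between bracketing concentrations, or set to the highest concentration if not reached. GI50 marks 50% less growth.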 Calls of active or inactive are those of the source. No stated cut-off is given here; in the data, active = GI50 up to about 1.1 µM and inactive = higher.

Key:
Assay in all cases: inhibition of tumour cell growth, NCI panel, 48 h
ACHN = tested on: ACHN
MCF7 = tested on: MCF7
RXF 393 = tested on: RXF 393
SNB-19 = tested on: SNB-19
SK-OV-3 = tested on: SK-OV-3
BT-549 = tested on: BT-549
SK-MEL-28 = tested on: SK-MEL-28
Malme-3M = tested on: Malme-3M
K562 = tested on: K562
DU-145 = tested on: DU-145
MDA-N = tested on: MDA-N
RPMI-8226 = tested on: RPMI-8226
U-251 = tested on: U-251
SNB-75 = tested on: SNB-75
HCT-116 = tested on: HCT-116
T47D = tested on: T47D
CCRF-CEM = tested on: CCRF-CEM
UACC-257 = tested on: UACC-257
A498 = tested on: A498
MDA-MB-231 = tested on: MDA-MB-231
UACC-62 = tested on: UACC-62
OVCAR-3 = tested on: OVCAR-3
HOP-62 = tested on: HOP-62
MDA-MB-435 = tested on: MDA-MB-435
SR = tested on: SR
NCI-H23 = tested on: NCI-H23
KM12 = tested on: KM12
SF-539 = tested on: SF-539
EKVX = tested on: EKVX
NCI-H460 = tested on: NCI-H460
TK-10 = tested on: TK-10
MOLT-4 = tested on: MOLT-4
Hs-578T = tested on: Hs-578T
HCC 2998 = tested on: HCC 2998
M14 = tested on: M14
NCI-H226 = tested on: NCI-H226
SK-MEL-2 = tested on: SK-MEL-2
HL-60 = tested on: HL-60
HT-29 = tested on: HT-29
UO-31 = tested on: UO-31
SN12C = tested on: SN12C
NCI-H522 = tested on: NCI-H522
LOX IMVI = tested on: LOX IMVI
HCT-15 = tested on: HCT-15
OVCAR-5 = tested on: OVCAR-5
SK-MEL-5 = tested on: SK-MEL-5
786-0 = tested on: 786-0
COLO 205 = tested on: COLO 205
CAKI-1 = tested on: CAKI-1
SF-295 = tested on: SF-295
IGROV-1 = tested on: IGROV-1
NCI/ADR-RES = tested on: NCI/ADR-RES
SF-268 = tested on: SF-268
SW-620 = tested on: SW-620
PC-3 = tested on: PC-3
OVCAR-8 = tested on: OVCAR-8
HOP-92 = tested on: HOP-92
A549 = tested on: A549
OVCAR-4 = tested on: OVCAR-4

Measured: GI50

COC(=O)C1=C(O)C(C(=O)OC)[C@@]2(O)[C@@H](C(=O)OC)[C@H](C)C[C@@H]1[C@@H]2C(=O)OC (stereo partly specified)
inactive: ACHN 59.8 µM | MCF7 34.8 µM | RXF 393 15.4 µM | SNB-19 34.2 µM | SK-OV-3 26 µM | BT-549 32.9 µM | SK-MEL-28 46.2 µM | Malme-3M 42.9 µM | K562 23.2 µM | DU-145 20.2 µM | MDA-N 15.2 µM | RPMI-8226 23.8 µM | U-251 20.5 µM | SNB-75 22.9 µM | HCT-116 35.5 µM | T47D 46.8 µM | CCRF-CEM 28.1 µM | UACC-257 63.1 µM | A498 15.5 µM | MDA-MB-231 14.1 µM | UACC-62 23.7 µM | OVCAR-3 20 µM | HOP-62 31.8 µM | MDA-MB-435 14.7 µM | SR 21.3 µM | NCI-H23 37.5 µM | KM12 23.5 µM | SF-539 18.4 µM | EKVX 22.4 µM | NCI-H460 20 µM | TK-10 57.9 µM | MOLT-4 28.3 µM | Hs-578T 19.9 µM | HCC 2998 16.6 µM | M14 20.6 µM | NCI-H226 39.3 µM | SK-MEL-2 21.4 µM | HL-60 25.9 µM | HT-29 27.6 µM | UO-31 21.5 µM | SN12C 36.6 µM | NCI-H522 25.2 µM | LOX IMVI 32.5 µM | OVCAR-5 30.5 µM
25.9 µM: HCT-15

CCOC(=O)C1=C(C)NC(c2ccccc2)=C(C(=O)OCc2ccccc2)C1C#Cc1ccccc1 (stereo unspecified)
inactive: MCF7 > 100 µM | RXF 393 > 100 µM | SK-MEL-5 > 100 µM | 786-0 > 100 µM | SNB-19 > 100 µM | SK-OV-3 > 100 µM | BT-549 > 100 µM | Malme-3M > 100 µM | K562 > 100 µM | DU-145 > 100 µM | RPMI-8226 > 100 µM | U-251 > 100 µM | COLO 205 > 100 µM | SF-295 > 100 µM | SNB-75 > 100 µM | HCT-116 > 100 µM | T47D > 100 µM | CCRF-CEM > 100 µM | IGROV-1 79.8 µM | NCI/ADR-RES > 100 µM | UACC-257 > 100 µM | A498 > 100 µM | UACC-62 > 100 µM | OVCAR-3 > 100 µM | HOP-62 > 100 µM | MDA-MB-435 > 100 µM | SR > 100 µM | NCI-H23 > 100 µM | KM12 > 100 µM | SF-268 > 100 µM | SF-539 > 100 µM | EKVX > 100 µM | TK-10 > 100 µM | MOLT-4 > 100 µM | Hs-578T > 100 µM | M14 > 100 µM | NCI-H226 > 100 µM | SK-MEL-2 > 100 µM | SW-620 > 100 µM | HL-60 > 100 µM | PC-3 > 100 µM | UO-31 58.2 µM | SN12C 12.4 µM | LOX IMVI > 100 µM | OVCAR-5 > 100 µM | OVCAR-8 > 100 µM
> 100 µM: HCT-15
active: MDA-N 0.274 µM | CAKI-1 0.0675 µM

CC(C)C[C@H]1[C@@H](OCc2ccccc2)COS(=O)N1[C@H](C)c1ccccc1 (stereo partly specified)
inactive: ACHN 19.5 µM | RXF 393 13.1 µM | SK-MEL-5 10.2 µM | 786-0 13.9 µM | SNB-19 30.3 µM | SK-OV-3 14.5 µM | BT-549 38.1 µM | SK-MEL-28 37.6 µM | Malme-3M 12.7 µM | K562 5.51 µM | DU-145 37.8 µM | MDA-N 24.9 µM | RPMI-8226 5.51 µM | U-251 13.3 µM | COLO 205 15.2 µM | CAKI-1 20.2 µM | SF-295 4 µM | SNB-75 15.6 µM | HCT-116 4.85 µM | T47D 9.55 µM | CCRF-CEM 13.3 µM | IGROV-1 8.75 µM | NCI/ADR-RES 18.7 µM | UACC-257 16 µM | A498 22.7 µM | MDA-MB-231 20.2 µM | UACC-62 35.1 µM | HOP-92 18.9 µM | OVCAR-3 10.2 µM | HOP-62 19.1 µM | MDA-MB-435 22.4 µM | NCI-H23 26.1 µM | KM12 13.2 µM | SF-268 24.2 µM | EKVX 28.6 µM | NCI-H460 15.3 µM | TK-10 20.6 µM | MOLT-4 11.9 µM | Hs-578T 12 µM | M14 7.66 µM | NCI-H226 10.9 µM | SK-MEL-2 15.7 µM | SW-620 29.1 µM | HL-60 8.15 µM | HT-29 6.95 µM | PC-3 5.79 µM | UO-31 25.3 µM | A549 17.5 µM | SN12C 17.5 µM | NCI-H522 4.33 µM | LOX IMVI 13.1 µM | OVCAR-5 18.9 µM | OVCAR-8 26.7 µM
26.9 µM: HCT-15

NCCCCNOCCCN
inactive: ACHN > 100 µM | MCF7 > 100 µM | RXF 393 > 100 µM | SK-MEL-5 > 100 µM | SNB-19 > 100 µM | SK-OV-3 > 100 µM | BT-549 > 100 µM | SK-MEL-28 > 100 µM | Malme-3M > 100 µM | K562 > 100 µM | DU-145 > 100 µM | MDA-N > 100 µM | RPMI-8226 > 100 µM | U-251 > 100 µM | COLO 205 > 100 µM | CAKI-1 > 100 µM | SF-295 > 100 µM | SNB-75 > 100 µM | HCT-116 > 100 µM | T47D > 100 µM | CCRF-CEM > 100 µM | IGROV-1 > 100 µM | NCI/ADR-RES > 100 µM | UACC-257 > 100 µM | UACC-62 > 100 µM | HOP-92 > 100 µM | OVCAR-3 > 100 µM | MDA-MB-435 > 100 µM | SR > 100 µM | NCI-H23 > 100 µM | KM12 > 100 µM | SF-268 > 100 µM | SF-539 > 100 µM | EKVX > 100 µM | NCI-H460 > 100 µM | TK-10 > 100 µM | MOLT-4 > 100 µM | OVCAR-4 > 100 µM | Hs-578T > 100 µM | HCC 2998 > 100 µM | M14 > 100 µM | NCI-H226 > 100 µM | SK-MEL-2 > 100 µM | SW-620 > 100 µM | HT-29 > 100 µM | PC-3 > 100 µM | UO-31 > 100 µM | A549 > 100 µM | SN12C > 100 µM | NCI-H522 61.5 µM | LOX IMVI > 100 µM | OVCAR-5 42.8 µM | OVCAR-8 > 100 µM
